Reference: the supplement of paper PMC10627819

How the values were obtained:
S. pneumoniae D39V [1] = assay: fitness (endpoint OD595 vs no drug) (fraction); higher = more growth
Outline: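 At 37 °C, bacteria in TSB, LB Lennox or CY were grown in 384-well plates from a starting OD595 of 0.01. OD595 was measured every 30 min for 14 h, with the first reading used as background. Fitness is the optical density at the switch to stationary phase as a fraction of the robust mean of no-drug control wells, capped at 1.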

B. subtilis 168 = assay: Bliss interaction score (quartile over a dose matrix) (fitness difference); higher = more antagonism (negative = synergy)
Outline: (§1)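 Fitness was OD595 at entry into stationary phase divided by the plate's robust no-drug mean and capped at 1; single-drug fitness was inferred from combination data. The Bliss score is observed minus expected (product) fitness, summarised by quartiles over technical, biological and donor/recipient replicates.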

S. aureus DSM 20231 = assay: as above
Outline: as §1

S. aureus Newman = assay: as above
Outline: as §1

S. pneumoniae D39V [2] = assay: as above
Outline: as §1
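For Bliss interaction score (quartile over a dose matrix) in this document: first quartile when negative (synergy) and third quartile when positive (antagonism).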

CCC[C@@H]1C[C@@H](C(=O)N[C@@H]([C@H]2O[C@H](SC)[C@H](O)[C@@H](O)[C@H]2O)[C@H](C)Cl)N(C)C1 [Clindamycin] + CO[C@H]1/C=C/O[C@@]2(C)Oc3c(C)c(O)c4c(O)c(c(/C=N/N5CCN(C)CC5)c(O)c4c3C2=O)NC(=O)/C(C)=C\C=C\[C@H](C)[C@H](O)[C@@H](C)[C@@H](O)[C@@H](C)[C@H](OC(C)=O)[C@@H]1C [Rifampicin]
fitness, S. pneumoniae D39V [1]
Details	first compound 0.0125 µg/mL	first compound 0.015 µg/mL	first compound 0.025 µg/mL	first compound 0.03 µg/mL	first compound 0.05 µg/mL	first compound 0.06 µg/mL
partner 0.025 µg/mL	0.795	–	0.539	–	0.273	–
partner 0.05 µg/mL	0.811	–	0.523	–	0.215	0.226
partner 0.1 µg/mL	0.341	0.267	0.223	0.212	0.15	0.164

fitness, S. pneumoniae D39V [1], one replicate
Details	first compound 0.015 µg/mL	first compound 0.03 µg/mL	first compound 0.06 µg/mL
partner 0.025 µg/mL	0.702	0.496	0.229
partner 0.2 µg/mL	0	0	0

Details	Bliss interaction score
B. subtilis 168	-0.223
S. aureus DSM 20231	0.027
S. aureus Newman	0.0465
S. pneumoniae D39V [2]	-0.077

CCC[C@@H]1C[C@@H](C(=O)N[C@@H]([C@H]2O[C@H](SC)[C@H](O)[C@@H](O)[C@H]2O)[C@H](C)Cl)N(C)C1 [Clindamycin] + C[C@@H](O)[C@H]1C(=O)N2C(C(=O)O)=C(SCCNC=N)C[C@H]12 [Imipenem]
fitness, S. pneumoniae D39V [1]
Details	first compound 0.0125 µg/mL	first compound 0.015 µg/mL	first compound 0.025 µg/mL	first compound 0.03 µg/mL	first compound 0.05 µg/mL	first compound 0.06 µg/mL
partner 0.005 µg/mL	0.753	–	0.5	–	0.213	–
partner 0.0065 µg/mL	–	0.843	–	0.628	–	0.176
partner 0.01 µg/mL	0.763	–	0.486	–	0.202	–
partner 0.013 µg/mL	–	0.877	–	0.744	–	0.46
partner 0.02 µg/mL	0.758	–	0.468	–	0.19	–
partner 0.026 µg/mL	–	0.824	–	0.644	–	0.299

Details	Bliss interaction score
B. subtilis 168	0.159
S. aureus DSM 20231	0.0276
S. aureus Newman	-0.0198
S. pneumoniae D39V [2]	-0.0804

CCC[C@@H]1C[C@@H](C(=O)N[C@@H]([C@H]2O[C@H](SC)[C@H](O)[C@@H](O)[C@H]2O)[C@H](C)Cl)N(C)C1 [Clindamycin] + Clc1ccc(COC(Cn2ccnc2)c2ccc(Cl)cc2Cl)c(Cl)c1 [Miconazole]
S. pneumoniae D39V [1]
Details	fitness
first compound 0.0125 µg/mL, partner 1.25 µg/mL	0.688
first compound 0.0125 µg/mL, partner 2.5 µg/mL	0.758
first compound 0.0125 µg/mL, partner 5 µg/mL	0.761
first compound 0.015 µg/mL, partner 1.073 µg/mL	0.944
first compound 0.015 µg/mL, partner 2.145 µg/mL	0.945
first compound 0.015 µg/mL, partner 4.29 µg/mL	0.906
first compound 0.025 µg/mL, partner 1.25 µg/mL	0.433
first compound 0.025 µg/mL, partner 2.5 µg/mL	0.485
first compound 0.025 µg/mL, partner 5 µg/mL	0.444
first compound 0.03 µg/mL, partner 1.073 µg/mL	0.772
first compound 0.03 µg/mL, partner 2.145 µg/mL	0.777
first compound 0.03 µg/mL, partner 4.29 µg/mL	0.665
first compound 0.05 µg/mL, partner 1.25 µg/mL	0.213
first compound 0.05 µg/mL, partner 2.5 µg/mL	0.235
first compound 0.05 µg/mL, partner 5 µg/mL	0.252
first compound 0.06 µg/mL, partner 4.29 µg/mL	0.33

Details	Bliss interaction score
B. subtilis 168	0.0322
S. aureus DSM 20231	-0.0342
S. aureus Newman	-0.0596
S. pneumoniae D39V [2]	-0.0991

CCC[C@@H]1C[C@@H](C(=O)N[C@@H]([C@H]2O[C@H](SC)[C@H](O)[C@@H](O)[C@H]2O)[C@H](C)Cl)N(C)C1 [Clindamycin] + O=C1CN(/N=C/c2ccc([N+](=O)[O-])o2)C(=O)N1 [Nitrofurantoin]
fitness, S. pneumoniae D39V [1]
Details	first compound 0.0125 µg/mL	first compound 0.015 µg/mL	first compound 0.025 µg/mL	first compound 0.03 µg/mL	first compound 0.05 µg/mL	first compound 0.06 µg/mL
partner 1.285 µg/mL	–	0.848	–	0.692	–	0.51
partner 2 µg/mL	0.583	–	0.302	–	0.0691	–
partner 2.57 µg/mL	–	0.886	–	0.708	–	0.445
partner 4 µg/mL	0.503	–	0.224	–	0.0581	–
partner 8 µg/mL	0.339	–	0.126	–	0.0351	–

S. pneumoniae D39V [1], partner 5.14 µg/mL, one replicate
Details	fitness
first compound 0.015 µg/mL	0.809
first compound 0.03 µg/mL	0.685
first compound 0.06 µg/mL	0.319

Details	Bliss interaction score
B. subtilis 168	-0.113
S. aureus DSM 20231	-0.0327
S. aureus Newman	-0.127
S. pneumoniae D39V [2]	-0.173

O=C(O[C@@H]1Cc2c(O)cc(O)cc2O[C@@H]1c1cc(O)c(O)c(O)c1)c1cc(O)c(O)c(O)c1 [EGCG] + CO[C@H]1/C=C/O[C@@]2(C)Oc3c(C)c(O)c4c(O)c(c(/C=N/N5CCN(C)CC5)c(O)c4c3C2=O)NC(=O)/C(C)=C\C=C\[C@H](C)[C@H](O)[C@@H](C)[C@@H](O)[C@@H](C)[C@H](OC(C)=O)[C@@H]1C [Rifampicin]
fitness, S. pneumoniae D39V [1]
Details	first compound 12.5 µg/mL	first compound 25 µg/mL	first compound 50 µg/mL
partner 0.025 µg/mL	0.923	0.925	≥ 1
partner 0.05 µg/mL	0.931	–	0.942
partner 0.1 µg/mL	–	–	0.496

S. pneumoniae D39V [1], partner 0.2 µg/mL, one replicate
Details	fitness
first compound 12.5 µg/mL	0
first compound 25 µg/mL	0
first compound 50 µg/mL	0

Details	Bliss interaction score
B. subtilis 168	0.0434
S. aureus DSM 20231	-0.0623
S. aureus Newman	-0.0254
S. pneumoniae D39V [2]	-0.0502

O=C(O[C@@H]1Cc2c(O)cc(O)cc2O[C@@H]1c1cc(O)c(O)c(O)c1)c1cc(O)c(O)c(O)c1 [EGCG] + C[C@@H](O)[C@H]1C(=O)N2C(C(=O)O)=C(SCCNC=N)C[C@H]12 [Imipenem]
fitness, S. pneumoniae D39V [1]
Details	partner 0.005 µg/mL	partner 0.0065 µg/mL	partner 0.01 µg/mL	partner 0.013 µg/mL	partner 0.02 µg/mL	partner 0.026 µg/mL
first compound 12.5 µg/mL	0.952	0.863	0.875	0.78	0.9	0.563
first compound 25 µg/mL	0.985	0.833	0.971	0.959	0.842	–
first compound 50 µg/mL	0.912	0.896	0.939	0.799	≥ 1	0.899

Details	Bliss interaction score
B. subtilis 168	0.185
S. aureus DSM 20231	-0.0357
S. aureus Newman	0.0318
S. pneumoniae D39V [2]	0.0607
